Legend:
[1] = target: T1, C-X-C chemokine receptor type 3 (Homo sapiens, UniProt P49682); test: Inhibition of human recombinant CXCR3
T1 sequence (P49682 whole entry): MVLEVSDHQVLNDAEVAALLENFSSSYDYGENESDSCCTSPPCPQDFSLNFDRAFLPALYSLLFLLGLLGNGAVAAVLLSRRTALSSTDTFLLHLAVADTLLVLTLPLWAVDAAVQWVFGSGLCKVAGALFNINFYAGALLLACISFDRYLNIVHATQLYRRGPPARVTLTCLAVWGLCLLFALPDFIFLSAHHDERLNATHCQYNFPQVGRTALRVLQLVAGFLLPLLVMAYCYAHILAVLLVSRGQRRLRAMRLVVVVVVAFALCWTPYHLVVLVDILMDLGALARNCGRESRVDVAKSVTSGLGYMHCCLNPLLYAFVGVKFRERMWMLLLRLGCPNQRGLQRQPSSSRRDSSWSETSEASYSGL

[2] = target: T1, C-X-C chemokine receptor type 3; test: Inhibition of human wild type CXCR3
[3] = Inhibition of CXCR4-Y251A mutant (unknown origin); set-up: species or system Homo sapiens
[4] = target: C-X-C chemokine receptor type 4 (Homo sapiens, UniProt P61073); test: Binding affinity to CXCR4 (unknown origin) assessed as inhibition constant
[5] = target: T2, C-X-C chemokine receptor type 2 (Homo sapiens, UniProt P25025); test: Binding affinity to wild type human CXCR2 assessed as dissociation constant
T2 sequence (P25025 whole entry): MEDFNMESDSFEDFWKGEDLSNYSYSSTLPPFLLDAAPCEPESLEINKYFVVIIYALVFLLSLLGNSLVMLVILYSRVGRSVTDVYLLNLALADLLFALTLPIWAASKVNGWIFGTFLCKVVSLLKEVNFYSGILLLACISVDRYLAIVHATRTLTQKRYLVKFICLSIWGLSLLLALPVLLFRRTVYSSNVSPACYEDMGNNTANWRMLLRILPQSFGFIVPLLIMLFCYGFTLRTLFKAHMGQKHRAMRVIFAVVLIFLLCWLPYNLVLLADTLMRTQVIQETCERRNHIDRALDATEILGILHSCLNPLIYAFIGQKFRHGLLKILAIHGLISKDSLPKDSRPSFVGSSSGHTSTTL

[6] = target: C-C chemokine receptor type 2 (Homo sapiens, UniProt P41597); test: Binding affinity to CCR2 (unknown origin) assessed as inhibition constant
[7] = target: T3, C-C chemokine receptor type 5 (Homo sapiens, UniProt P51681); test: Inhibition of wild type CCR5 (unknown origin)
[8] = target: T3, C-C chemokine receptor type 5; test: Inhibition of human CCR5
[9] = Binding affinity to CXCR4-Y251A mutant (unknown origin) assessed as […]; set-up: species or system Homo sapiens
[10] = target: C-C chemokine receptor type 8 (Homo sapiens, UniProt P51685); test: Inhibition of CCR8 mutant (unknown origin)
C-C chemokine receptor type 8, sequence (P51685 whole entry, looked up, change not shown): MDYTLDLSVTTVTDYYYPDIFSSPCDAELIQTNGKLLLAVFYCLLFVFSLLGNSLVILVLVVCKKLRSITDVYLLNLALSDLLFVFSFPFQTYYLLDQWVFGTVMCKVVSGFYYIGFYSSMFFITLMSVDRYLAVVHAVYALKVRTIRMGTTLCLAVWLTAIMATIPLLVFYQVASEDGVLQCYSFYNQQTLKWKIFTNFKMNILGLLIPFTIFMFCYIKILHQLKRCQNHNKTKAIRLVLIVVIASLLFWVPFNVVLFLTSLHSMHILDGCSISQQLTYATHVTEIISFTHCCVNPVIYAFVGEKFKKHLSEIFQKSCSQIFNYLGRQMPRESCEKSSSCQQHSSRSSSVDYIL

C-C chemokine receptor type 2, sequence (P41597 whole entry): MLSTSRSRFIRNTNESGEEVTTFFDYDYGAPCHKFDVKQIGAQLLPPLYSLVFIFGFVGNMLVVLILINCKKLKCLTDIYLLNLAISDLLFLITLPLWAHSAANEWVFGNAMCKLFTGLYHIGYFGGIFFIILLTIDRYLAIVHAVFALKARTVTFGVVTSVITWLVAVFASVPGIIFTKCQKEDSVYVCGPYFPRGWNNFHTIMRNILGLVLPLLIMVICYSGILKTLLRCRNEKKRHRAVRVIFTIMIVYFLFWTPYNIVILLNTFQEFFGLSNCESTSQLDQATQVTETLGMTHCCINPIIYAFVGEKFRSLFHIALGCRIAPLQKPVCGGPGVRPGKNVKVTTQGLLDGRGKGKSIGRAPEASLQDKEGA
C-X-C chemokine receptor type 4, sequence (P61073 whole entry): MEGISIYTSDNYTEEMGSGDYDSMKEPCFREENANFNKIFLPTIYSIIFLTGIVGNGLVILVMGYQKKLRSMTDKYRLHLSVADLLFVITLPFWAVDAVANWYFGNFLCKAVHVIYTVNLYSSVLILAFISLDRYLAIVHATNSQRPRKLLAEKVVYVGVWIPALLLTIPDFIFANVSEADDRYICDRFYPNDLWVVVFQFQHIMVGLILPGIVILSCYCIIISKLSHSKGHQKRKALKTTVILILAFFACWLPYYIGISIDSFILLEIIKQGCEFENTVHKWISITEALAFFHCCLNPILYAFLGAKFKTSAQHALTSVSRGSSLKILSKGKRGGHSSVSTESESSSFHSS
T3 sequence (P51681 whole entry): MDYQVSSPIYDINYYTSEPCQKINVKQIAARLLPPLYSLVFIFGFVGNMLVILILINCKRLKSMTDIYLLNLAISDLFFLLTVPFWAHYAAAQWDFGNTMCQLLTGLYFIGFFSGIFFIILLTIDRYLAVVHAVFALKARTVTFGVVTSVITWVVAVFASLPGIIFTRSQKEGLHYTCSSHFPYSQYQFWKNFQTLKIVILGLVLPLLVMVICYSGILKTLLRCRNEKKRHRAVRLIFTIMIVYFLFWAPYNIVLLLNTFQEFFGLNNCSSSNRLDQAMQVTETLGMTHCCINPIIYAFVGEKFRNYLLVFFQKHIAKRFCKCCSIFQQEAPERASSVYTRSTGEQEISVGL

CCOc1ccc(-n2c([C@@H](C)N(Cc3cccnc3)C(=O)Cc3ccc(F)c(C(F)(F)F)c3)nc3ncccc3c2=O)cc1
IC50 [1]: 0.0631 µM
IC50 [2]: 0.0631 µM

CCCCN1C(=O)[C@H](CC2CCCCC2)NC(=O)C12CCN(Cc1ccc(Oc3ccc(C(=O)O)cc3)cc1)CC2
IC50 [3]: 0.0167 µM

CCCN(CCC)CCCCN(C)Cc1ccc(CN(Cc2ncc[nH]2)Cc2nccn2C)cc1
Ki [4]: 0.00061 µM

C(CCCN1CCCNCCNCCCNCC1)CCN1CCCNCCNCCCNCC1
Ki [4]: 2.3 µM

CC(=O)N1CCC(C(=O)N(CCCN2CCC(Cc3ccc(C(N)=O)cc3)CC2)c2ccc(C)c(Cl)c2)CC1
IC50 [3]: 0.02 µM

NCCCC[C@H](NC(=O)[C@@H]1Cc2ccccc2CN1C(=O)CCC(=O)c1ccccc1)C(=O)NCC(c1ccccc1)c1ccccc1
IC50 [2]: 1 µM

C[C@H](NC(=O)[C@H](CCCNC(=N)N)NC(=O)c1ccc(CNCc2ccccn2)cc1)c1cccc2ccccc12
Ki [4]: 8 µM

C[C@H](CO)Nc1nc(SCc2cccc(F)c2F)nc2[nH]c(=O)cnc12
Kd [5]: 1 µM

c1cc(CN2CCCNCCNCCCNCC2)cc(CN2CCCNCCNCCCNCC2)n1
Ki [4]: 0.85 µM

C1CNCCNCCCN(CCCN2CCCNCCNCCCNCC2)CCNC1
Ki [4]: 0.18 µM

Cc1ccc(CN2CC[C@@H](NC(=O)CNC(=O)c3cccc(C(F)(F)F)c3)C2)c(C)c1
Ki [6]: 0.316 µM

Cc1ccc(-c2ccc3c(c2)C=C(C(=O)Nc2ccc(C[N+](C)(C)C4CCOCC4)cc2)CCC3)cc1.[Cl-]
IC50 [3]: 0.019 µM
Ki [6]: 0.0631 µM
pIC50 [2]: 4.5

O=C(/C=C/c1ccc(Cl)c(Cl)c1)NCCCCCN1CCC(c2c[nH]c3ccc(O)cc23)CC1
Ki [6]: 0.1 µM

CCNC(=O)c1cnc(N2CCN(C3CCN(Cc4ccc(Cl)cc4)CC3)[C@@H](CC)C2)c(Cl)c1
IC50 [1]: 0.0158 µM
IC50 [2]: 0.0158 µM

CC[C@@H](NC1C(=O)C(=O)C1Nc1cccc(C(=O)N(C)C)c1O)c1ccc(C)o1 (some centres not stated)
Kd [5]: 10000 µM

CCCC[C@H]1C[C@@H](N(C)C(C)C)CC[C@H]1NC(=O)CNC(=O)c1cccc(C(F)(F)F)c1
IC50 [7]: 0.0025 µM

O=C(C1=C(O)C(=O)N(c2nnc(SCc3ccc(Cl)cc3)s2)C1c1cccs1)c1cc2ccccc2o1 (configuration not stated)
IC50 [8]: 2 µM

O=CNC(=C(Cl)Cl)[P+](c1ccccc1)(c1ccccc1)c1ccccc1.[O-][Cl+3]([O-])([O-])[O-]
IC50 [9]: 27 µM

COc1ccccc1Oc1cccc(CN2CCC(O)(c3ccccc3C(=O)O)CC2)c1
pIC50 [10]: 7.5

CCNS(=O)(=O)c1ccc(OC)cc1C1(O)CCN(Cc2cccc(Oc3ccccc3OC)c2)CC1
pIC50 [10]: 7.8

COc1ccccc1Oc1cccc(CN2CCC(NC(=O)C3CC(=O)Nc4ccccc43)CC2)c1 (configuration not stated)
pIC50 [10]: 7.3

CCO/N=C(\c1ccc(Br)cc1)C1CCN(C2(C)CCN(C(=O)c3c(C)cc[n+]([O-])c3C)CC2)CC1 [ANCRIVIROC]
IC50 [9]: 0.016 µM

Cc1nnc(C(C)C)n1[C@H]1C[C@H]2CC[C@@H](C1)N2CC[C@H](NC(=O)C1CCC(F)(F)CC1)c1ccccc1 [MARAVIROC]
IC50 [3]: 0.0002 µM

— ChEMBL document CHEMBL5260798, “Structural Analysis of Chemokine Receptor-Ligand Interactions” (J Med Chem, 2017)
